*1 amine or outer side, *2 acyl side, *3 side chain or, on linkers, in order; H or OH if unused. Where a SMILES comes first, the peptide text is derived from it. Bridges are numbered along the chain shown (N, C = ends). Roman numbers before positions name the chains, in order. [ ]: non-standard residue; d: D form. Phe(4-tBu) = CC(C)(C)c1ccc(C[C@H](N)C(=O)O)cc1; Bip = N[C@@H](Cc1ccc(-c2ccccc2)cc1)C(=O)O; Diglycolyl = O=C(COCC(=O)[*:2])[*:1]; NMeR = CN[C@@H](CCCNC(=N)N)C(=O)O; Tic = O=C(O)[C@@H]1Cc2ccccc2CN1; β3hE = N[C@@H](CCC(=O)O)CC(=O)O; X1 = O=C(c1ccccc1C[*:2])[*:1]; Pen = CC(C)(S)[C@H](N)C(=O)O
How the values were obtained:
[1] = Simulated Gastric Fluid (SGF) Stability Assay; type: in vitro ADME; details: pig, pH 2, 37° C., dimers, Table 7; for half-life at 20 μM: simulated gastric fluid (SGF) with porcine pepsin; for half-life: simulated gastric fluid (with porcine pepsin)
How it was run: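 Peptides at 20 μM final were incubated at 37° C with shaking in simulated gastric fluid (NaCl, porcine pepsin, HCl; pH 2). Samples were taken at 0, 15, 30 and 60 min, quenched in acetonitrile/0.1% formic acid and quantified by LC-MS/MS against an internal standard relative to time 0. Half-life came from first-order exponential decay fit.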

[2] = system: CD4+/CD45RO+ memory T cells; assay: PBMC Memory T Cell Adhesion Assay; type: cell-based, human; details: thioether monomer peptides, Table 6
Protocol: PBMC Memory T Cell Adhesion Assay
Fresh CD4+/CD45RO+ memory T cells were isolated from human peripheral blood mononuclear cell (PBMC) donors by Aragen Bioscience Inc. (Morgan Hill, CA). The assay plate was prepared using IgG Fc capture antibody (donkey anti human) immobilized at 500 ng/well in 50 mM sodium bicarbonate buffer, pH 9.5, ON, 4 C onto a Greiner Fluotrac plate (100 ul per well). The plate was rinsed two time with Blocking Buffer (25 mM Tris HCl, pH7.5, 150 mM NaCl, 1.5% BSA, 0.05% Tween), and blocked with Blocking Buffer for 2 hours at 37 C or 5 hours at RT using 200 ul per well. The Blocking Buffer was removed and either MAdCAM-1 or VCAM-1 at 400 ng/well in Blocking Buffer was added and the plate incubated overnight at 4 C (100 ul per well). The plate was washed two times with Blocking Buffer, and rinsed once with 200 ul Binding Media (DMEM phenol red free, 10 mM HEPES, 1×Na pyruvate, 1× Glutamine, and supplemented with 1 mM MnC12 prior to use). To prepare cells, approximately 25 million CD4+/CD45RO+ memory T cells were counted by trypan blue exclusion using a haemocytometer to determine viability and cell count. The cells were transferred to a 50 ml conical tube, and centrifuged at 1200 rpm for 10 minute. The media was aspirated and the cell pellet resuspended in 15 ml Binding Media. The cells were centrifuged again and resuspended in the appropriate amount of Binding Media to be used for assays (50 ul of cells per well at 2× the final density). To each well, and equal volume (50 ul) of test compound was added and the plate was incubated for 1.5 hours at 37 C, 5% CO2. Each well was rinsed 3× with 150 ul per well of Binding Media. […] The plate was incubated at 37 C, 5% CO2, for 45 minutes. The plate was protected from light by using black adhesive seals. Fluorescence intensity was measured using a Molecular Devices Gemini EM Fluorescent Plate Reader (Ex 485/Em530, Bottom Read, Reading Sensitivity=20). IC50 curves are generated using Graph Pad Prism and the curves analyzed using analyzed using a non-linear regression (four parameters) algorithm. The log (concentration) versus RFU (Ex485/Em530) was plotted to determine IC50 values.

SMILES	IC50 [2] [nM]	half-life [1] [h]	other results
CC(C)C[C@@H]1NC(=O)[C@H]([C@@H](C)O)NC(=O)[C@H](CC(=O)O)NC(=O)[C@H](CO)NC(=O)[C@H](CCCNC(=N)N)N(C)C(=O)c2ccccc2CSC(C)(C)[C@@H](C(=O)N[C@@H](Cc2ccc(-c3ccccc3)cc2)C(=O)N[C@H](CCC(=O)O)C(=O)N[C@H](CCCCN)C(N)=O)NC1=O [compound 178] (HELM PEPTIDE1{[meR].S.D.T.L.[Pen].[O=C([C@H](Cc1ccc(-c2ccccc2)cc1)N[*:1])[*:2]].[dE].[dK].[am]}|CHEM1{[O=C(c1ccccc1C[*:2])[*:1]]}$PEPTIDE1,CHEM1,1:R1-1:R1|PEPTIDE1,CHEM1,6:R3-1:R2$$$V2.0)			half-life at 20 μM [1]: > 3 h
CC(C)C[C@@H]1NC(=O)[C@H]([C@@H](C)O)NC(=O)[C@H](CC(=O)O)NC(=O)[C@H](CO)NC(=O)[C@H](CCCNC(=N)N)N(C)C(=O)c2ccccc2CSC(C)(C)[C@@H](C(=O)N[C@@H](Cc2ccc(-c3ccccc3)cc2)C(=O)N[C@@H](CCC(=O)O)CC(N)=O)NC1=O [compound 133] ([NMeR]SDTL[Pen][Bip][β3hE]-NH2; linker N-6 via X1)	100 to 1000		
CC(C)C[C@@H]1NC(=O)[C@H]([C@@H](C)O)NC(=O)[C@H](CC(=O)O)NC(=O)[C@H](CO)NC(=O)[C@H](CCCNC(=N)N)N(C)C(=O)c2ccccc2CSC(C)(C)[C@@H](C(=O)N[C@@H](Cc2ccc(C(C)(C)C)cc2)C(=O)N[C@@H](CCC(=O)O)CC(N)=O)NC1=O [compound 134] ([NMeR]SDTL[Pen][Phe(4-tBu)][β3hE]-NH2; linker N-6 via X1)	25 to 100		
CC(C)C[C@@H]1NC(=O)[C@H]([C@@H](C)O)NC(=O)[C@H](CC(=O)O)NC(=O)[C@H](CO)NC(=O)[C@H](CCCNC(=N)N)N(C)C(=O)c2ccccc2CSC[C@@H](C(=O)N2Cc3ccccc3C[C@H]2C(=O)N[C@H](CCC(=O)O)C(=O)N[C@H](CCCCNC(=O)COCC(=O)NCCCC[C@@H](NC(=O)[C@@H](CCC(=O)O)NC(=O)[C@@H]2Cc3ccccc3CN2C(=O)[C@@H]2CSCc3ccccc3C(=O)N(C)[C@@H](CCCNC(=N)N)C(=O)N[C@@H](CO)C(=O)N[C@@H](CC(=O)O)C(=O)N[C@@H]([C@@H](C)O)C(=O)N[C@@H](CC(C)C)C(=O)N2)C(=O)O)C(=O)O)NC1=O [compound 207] (I: [NMeR]SDTLC[Tic][dE][dK]-OH / II: [NMeR]SDTLC[Tic][dE][dK]-OH; linker I:9-II:9 via Diglycolyl; linker I:N-I:6, II:N-II:6 via X1)		> 3	
CC(C)C[C@@H]1NC(=O)[C@H]([C@@H](C)O)NC(=O)[C@H](CC(=O)O)NC(=O)[C@H](CO)NC(=O)[C@H](CCCNC(=N)N)N(C)C(=O)c2ccccc2CSC[C@@H](C(=O)N2Cc3ccccc3C[C@H]2C(=O)N[C@H](CCC(=O)O)C(=O)N[C@H](CCCCNC(=O)COCC(=O)NCCCC[C@@H](NC(=O)[C@@H](CCC(=O)O)NC(=O)[C@@H]2Cc3ccccc3CN2C(=O)[C@@H]2CSCc3ccccc3C(=O)N(C)[C@@H](CCCNC(=N)N)C(=O)N[C@@H](CO)C(=O)N[C@@H](CC(=O)O)C(=O)N[C@@H]([C@@H](C)O)C(=O)N[C@@H](CC(C)C)C(=O)N2)C(N)=O)C(N)=O)NC1=O [compound 184] (I: [NMeR]SDTLC[Tic][dE][dK]-NH2 / II: [NMeR]SDTLC[Tic][dE][dK]-NH2; linker I:9-II:9 via Diglycolyl; linker I:N-I:6, II:N-II:6 via X1)			half-life at 20 μM [1]: > 3 h
CC(C)C[C@@H]1NC(=O)[C@H]([C@@H](C)O)NC(=O)[C@H](CC(=O)O)NC(=O)[C@H](CO)NC(=O)[C@H](CCCNC(=N)N)N(C)C(=O)c2ccccc2CSC(C)(C)[C@@H](C(=O)N[C@@H](Cc2ccc(-c3ccccc3)cc2)C(=O)N[C@H](CCC(=O)O)C(=O)N[C@H](CCCCNC(=O)COCC(=O)NCCCC[C@@H](NC(=O)[C@@H](CCC(=O)O)NC(=O)[C@H](Cc2ccc(-c3ccccc3)cc2)NC(=O)[C@H]2NC(=O)[C@H](CC(C)C)NC(=O)[C@H]([C@@H](C)O)NC(=O)[C@H](CC(=O)O)NC(=O)[C@H](CO)NC(=O)[C@H](CCCNC(=N)N)N(C)C(=O)c3ccccc3CSC2(C)C)C(=O)O)C(=O)O)NC1=O [compound 208] (I: [NMeR]SDTL[Pen][Bip][dE][dK]-OH / II: [NMeR]SDTL[Pen][Bip][dE][dK]-OH; linker I:9-II:9 via Diglycolyl; linker I:N-I:6, II:N-II:6 via X1)		> 3	
CC(C)C[C@@H]1NC(=O)[C@H]([C@@H](C)O)NC(=O)[C@H](CC(=O)O)NC(=O)[C@H](CO)NC(=O)[C@H](CCCNC(=N)N)N(C)C(=O)c2ccccc2CSC(C)(C)[C@@H](C(=O)N[C@@H](Cc2ccccc2)C(=O)N[C@H](CCC(=O)O)C(=O)N[C@H](CCCCNC(=O)COCC(=O)NCCCC[C@@H](NC(=O)[C@@H](CCC(=O)O)NC(=O)[C@H](Cc2ccccc2)NC(=O)[C@H]2NC(=O)[C@H](CC(C)C)NC(=O)[C@H]([C@@H](C)O)NC(=O)[C@H](CC(=O)O)NC(=O)[C@H](CO)NC(=O)[C@H](CCCNC(=N)N)N(C)C(=O)c3ccccc3CSC2(C)C)C(=O)O)C(=O)O)NC1=O [compound 204] (I: [NMeR]SDTL[Pen]F[dE][dK]-OH / II: [NMeR]SDTL[Pen]F[dE][dK]-OH; linker I:9-II:9 via Diglycolyl; linker I:N-I:6, II:N-II:6 via X1)		> 3	
CC(C)C[C@@H]1NC(=O)[C@H]([C@@H](C)O)NC(=O)[C@H](CC(=O)O)NC(=O)[C@H](CO)NC(=O)[C@H](CCCNC(=N)N)N(C)C(=O)c2ccccc2CSC(C)(C)[C@@H](C(=O)N[C@@H](Cc2c[nH]c3ccccc23)C(=O)N[C@H](CCC(=O)O)C(=O)N[C@@H](Cc2ccccc2)C(N)=O)NC1=O [compound 101] (HELM PEPTIDE1{[meR].S.D.T.L.[Pen].W.[dE].F.[am]}|CHEM1{[O=C(c1ccccc1C[*:2])[*:1]]}$PEPTIDE1,CHEM1,1:R1-1:R1|PEPTIDE1,CHEM1,6:R3-1:R2$$$V2.0)	100 to 1000		
